Data reported in patent EP0552417B1, “Cyclic peptides and use thereof” (priority 1991, dated 1993).

Details: amide bond; 18-membered ring; HONB/DCC (preactivation); HCl/dioxane; TEA; DMF; 9.5 mM; 3 steps

Q: With “cyclo[-D-Asp(OBzl)-Hyp(Bzl)-Asp(OBzl)-D-Leu-Leu-D-Trp-]” as the substance, how does the ring closure, isolated yield read?
A: Its ring closure, isolated yield is 82.6%.
